Test results published in patent US20260295053A1, “COMPOUNDS FOR DEGRADATION AND INHIBITION OF KRAS (G12D) PROTEIN” (Shenzhen Ionova Life Science Co., Ltd., priority 2023, published 2026).

What was measured:
KRAS (G12D) = target: T1, KRAS (G12D) (Homo sapiens, UniProt P01116, G12D); assay: KRAS (G12D) cellular degradation assay in AsPC-1 cells; assay type: cell-based; conditions: 24 hours, antibody fluorescence (Odyssey CLX), DC50 half-maximal degradation concentration
T1 construct: in-cell western with KRAS G12D antibody after 24 h
In short: (§1)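 Read-outs were KRAS G12D immunofluorescence against β-actin after 24 h (DC50) and CellTiter Glo luminescence after 6 days (IC50). Compounds were titrated 1:3 from […] to 1.5 nM final on AsPC-1 cells at 37 °C, 5% CO2.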

AsPC-1 cells = assay: AsPC-1 cell proliferation assay (CellTiter Glo); assay type: cell-based; conditions: 6 days
In short: as §1

T1 sequence (P01116 1-188 isoform P01116-2 G12D): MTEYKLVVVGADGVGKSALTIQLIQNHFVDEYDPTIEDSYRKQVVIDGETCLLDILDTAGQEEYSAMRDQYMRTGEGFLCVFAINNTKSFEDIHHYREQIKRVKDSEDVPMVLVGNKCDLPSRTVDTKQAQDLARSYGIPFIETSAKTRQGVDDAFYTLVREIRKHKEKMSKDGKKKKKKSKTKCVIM

Compound | DC50 (KRAS (G12D)) [nM] | IC50 (AsPC-1 cells; Homo sapiens, ASPC1, 144 h) [nM] | IC50 (AsPC-1 cells) [nM]
CCn1nccc1-c1ccc([C@H](CO)NC(=O)[C@@H]2C[C@@H](O)CN2C(=O)[C@H](C(C)C)n2cc(-c3ccc(COc4c(-c5c(C)c(F)cc6[nH]ncc56)c(C5CC5)cc5c(N(C)[C@H]6CCNC6)nc(OC[C@H](C)OC)nc45)cc3)nn2)c2c1CC2 [Example 169, (2S,4R)-1-((2S)-2-(4-(4-(((6-cyclopropyl-7-(6-fluoro-5-methyl-1H-indazol-4-yl)-2-((S)-2-methoxypropoxy)-4-(methyl((S)-pyrrolidin-3-yl)amino)quinazolin-8-yl)oxy)methyl)phenyl)-1H-1,2,3-triazol-1-yl)-3-methylbutanoyl)-N—((R)-1-(5-(1-ethyl-1H-pyrazol-5-yl)bicyclo[4.2.0]octa-1(6),2,4-trien-2-yl)-2-hydroxyethyl)-4-hydroxypyrrolidine-2-carboxamide] | < 10 | < 10 | –
CCn1nccc1-c1ccc([C@@H](NC(=O)[C@@H]2C[C@@H](O)CN2C(=O)[C@H](C(C)C)n2cc(-c3ccc(COc4c(-c5c(C)c(F)cc6[nH]ncc56)c(C5CC5)cc5c(N6C[C@@H]7C[C@H]6CN7)nc(O[C@H]6C[C@H](OC)C6)nc45)cc3)nn2)[C@H](C)O)cc1F [Example 195, (2S,4R)-1-((2S)-2-(4-(4-(((4-((1S,4S)-2,5-diazabicyclo[2.2.1]heptan-2-yl)-6-cyclopropyl-7-(6-fluoro-5-methyl-1H-indazol-4-yl)-2-((1r,3S)-3-methoxycyclobutoxy)quinazolin-8-yl)oxy)methyl)phenyl)-1H-1,2,3-triazol-1-yl)-3-methylbutanoyl)-N-((1R,2S)-1-(4-(1-ethyl-1H-pyrazol-5-yl)-3-fluorophenyl)-2-hydroxypropyl)-4-hydroxypyrrolidine-2-carboxamide] | < 10 | < 10 | –
CO[C@@H](C)COc1nc(N2C[C@@H]3C[C@H]2CN3)c2cc(C3CC3)c(-c3c(C)c(F)cc4[nH]ncc34)c(OCc3ccc(-c4cn([C@H](C(=O)N5C[C@H](O)C[C@H]5C(=O)N[C@H](C#Cc5c(F)cccc5F)CO)C(C)C)nn4)cc3)c2n1 [Example 42, (2S,4R)-1-((2S)-2-(4-(4-(((4-((1S,4S)-2,5-diazabicyclo[2.2.1]heptan-2-yl)-6-cyclopropyl-7-(6-fluoro-5-methyl-1H-indazol-4-yl)-2-((S)-2-methoxypropoxy)quinazolin-8-yl)oxy)methyl)phenyl)-1H-1,2,3-triazol-1-yl)-3-methylbutanoyl)-N—((R)-4-(2,6-difluorophenyl)-1-hydroxybut-3-yn-2-yl)-4-hydroxypyrrolidine-2-carboxamide] | 10 to 100 | 10 to 100 | –
CO[C@@H](C)COc1nc(N2C[C@@H]3C[C@H]2CN3)c2cc(C3CC3)c(-c3c(C)c(F)cc4[nH]ncc34)c(OCc3ccc(-c4cn([C@H](C(=O)N5C[C@H](O)C[C@H]5C(=O)N[C@H](C#Cc5cccc6[nH]ncc56)CO)C(C)C)nn4)cc3)c2n1 [Example 133, (2S,4R)-1-((2S)-2-(4-(4-(((4-((1S,4S)-2,5-diazabicyclo[2.2.1]heptan-2-yl)-6-cyclopropyl-7-(6-fluoro-5-methyl-1H-indazol-4-yl)-2-((S)-2-methoxypropoxy)quinazolin-8-yl)oxy)methyl)phenyl)-1H-1,2,3-triazol-1-yl)-3-methylbutanoyl)-4-hydroxy-N—((R)-1-hydroxy-4-(1H-indazol-4-yl)but-3-yn-2-yl)pyrrolidine-2-carboxamide] | < 10 | < 10 | –

Continued, values first:

DC50 (KRAS (G12D)) [nM] | IC50 (AsPC-1 cells; Homo sapiens, ASPC1, 144 h) [nM] | IC50 (AsPC-1 cells) [nM] | Compound
< 10 | < 10 | – | CCn1nccc1-c1ccc([C@H](CO)NC(=O)[C@@H]2C[C@@H](O)CN2C(=O)[C@H](C(C)C)n2cc(-c3ccc(COc4c(-c5c(C)c(F)cc6[nH]ncc56)c(C5CC5)cc5c(N6C[C@@H]7C[C@H]6CN7)nc(OC6CC7(COC7)C6)nc45)cc3)nn2)cc1 [Example 69, (2S,4R)-1-((2S)-2-(4-(4-(((2-((2-oxaspiro[3.3]heptan-6-yl)oxy)-4-((1S,4S)-2,5-diazabicyclo[2.2.1]heptan-2-yl)-6-cyclopropyl-7-(6-fluoro-5-methyl-1H-indazol-4-yl)quinazolin-8-yl)oxy)methyl)phenyl)-1H-1,2,3-triazol-1-yl)-3-methylbutanoyl)-N—((R)-1-(4-(1-ethyl-1H-pyrazol-5-yl)phenyl)-2-hydroxyethyl)-4-hydroxypyrrolidine-2-carboxamide]
< 10 | < 10 | – | CCn1nccc1-c1ccc([C@H](CO)NC(=O)[C@@H]2C[C@@H](O)CN2C(=O)[C@H](C(C)C)n2cc(-c3ccc(COc4c(-c5c(C)c(F)cc6[nH]ncc56)c(C5CCC5)cc5c(N6C[C@@H]7C[C@H]6CN7)nc(OC[C@H](C)OC)nc45)cc3)nn2)cc1 [Example 68, (2S,4R)-1-((2S)-2-(4-(4-(((4-((1S,4S)-2,5-diazabicyclo[2.2.1]heptan-2-yl)-6-cyclobutyl-7-(6-fluoro-5-methyl-1H-indazol-4-yl)-2-((S)-2-methoxypropoxy)quinazolin-8-yl)oxy)methyl)phenyl)-1H-1,2,3-triazol-1-yl)-3-methylbutanoyl)-N—((R)-1-(4-(1-ethyl-1H-pyrazol-5-yl)phenyl)-2-hydroxyethyl)-4-hydroxypyrrolidine-2-carboxamide]
> 1000 | – | > 1000 | CCn1nccc1-c1ccc([C@H](C)NC(=O)[C@@H]2C[C@@H](O)CN2C(=O)[C@H](C(C)C)n2cc(-c3ccc(COc4c(-c5c(C)c(F)cc6[nH]ncc56)c(C5CC5)cc5c(N6C[C@H]7C[C@@H]6CN7)nc(OC[C@H](C)OC)nc45)cc3)nn2)cc1 (single isomer, unassigned) [Example 4B]
< 10 | < 10 | – | CCn1nccc1-c1ccc([C@H](CO)NC(=O)[C@@H]2C[C@@H](O)CN2C(=O)[C@H](C(C)C)n2cc(-c3ccc(COc4c(-c5c(C)c(F)c(F)c6[nH]ncc56)c(C5CC5)cc5c(N6C[C@@H]7C[C@H]6CN7)nc(O[C@H]6CC[C@H](OC)CC6)nc45)cc3)nn2)cc1 [Example 99, (2S,4R)-1-((2S)-2-(4-(4-(((4-((1S,4S)-2,5-diazabicyclo[2.2.1]heptan-2-yl)-6-cyclopropyl-7-(6,7-difluoro-5-methyl-1H-indazol-4-yl)-2-(((1r,4S)-4-methoxycyclohexyl)oxy)quinazolin-8-yl)oxy)methyl)phenyl)-1H-1,2,3-triazol-1-yl)-3-methylbutanoyl)-N—((R)-1-(4-(1-ethyl-1H-pyrazol-5-yl)phenyl)-2-hydroxyethyl)-4-hydroxypyrrolidine-2-carboxamide]
10 to 100 | 10 to 100 | – | CCn1nccc1-c1ccc([C@H](CO)NC(=O)[C@@H]2C[C@@H](O)CN2C(=O)[C@H](C(C)C)n2cc(-c3ccc(COc4c(-c5c(C)c(F)cc6[nH]ncc56)c(C5CC5)cc5c(N6C[C@@H]7C[C@H]6CN7)nc(OC[C@H](C)OC)nc45)cc3Cl)nn2)cc1 [Example 32, (2S,4R)-1-((2S)-2-(4-(4-(((4-((1S,4S)-2,5-diazabicyclo[2.2.1]heptan-2-yl)-6-cyclopropyl-7-(6-fluoro-5-methyl-1H-indazol-4-yl)-2-((S)-2-methoxypropoxy)quinazolin-8-yl)oxy)methyl)-2-chlorophenyl)-1H-1,2,3-triazol-1-yl)-3-methylbutanoyl)-N—((R)-1-(4-(1-ethyl-1H-pyrazol-5-yl)phenyl)-2-hydroxyethyl)-4-hydroxypyrrolidine-2-carboxamide]
